Counter-ions that a name gives are not always drawn.
System: MV-4-11 cells
Assay: AML cell viability assay (RealTime-Glo)
Type: cell-based
Conditions: Homo sapiens, MV4-11; IC50 class; MV-4-11 cells, RealTime-Glo after 44 hrs of treatment (TABLE 4); read-out: Cell viability classification

`O=C1CCC(N2Cc3c(cccc3N(CCC3CC3)[C@H]3CC[C@@H](NCC4(F)CCC4)CC3)C2=O)C(=O)N1` (stereo partly shown) [Compound 613A, 3-{4-[(2-cyclopropylethyl)[(1s,4s)-4-{[(1-fluorocyclobutyl)methyl]amino}cyclohexyl]amino]-1-oxo-3H-isoindol-2-yl}piperidine-2,6-dione] and `O=C1CCC(N2Cc3c(cccc3N(CCC3CC3)[C@H]3CC[C@@H](NCC4(F)COC4)CC3)C2=O)C(=O)N1` (stereo partly shown) [Compound 616A, 3-{4-[(2-cyclopropylethyl)[(1s,4s)-4-{[(3-fluorooxetan-3-yl)methyl]amino}cyclohexyl]amino]-1-oxo-3H-isoindol-2-yl}piperidine-2,6-dione; trifluoroacetate] fall in the same range of IC50: 100 to 1000 nM for the first, 100 to 1000 nM for the second.

First: O=C1CCC(N2Cc3c(cccc3N(CCC3CC3)[C@H]3CC[C@H](NCC4(C(F)(F)F)CCC4)CC3)C2=O)C(=O)N1 (stereo partly shown) [Compound 614, 3-{4-[(2-cyclopropylethyl)[(1r,4r)-4-({[1-(trifluoromethyl)cyclobutyl]methyl}amino)cyclohexyl]amino]-1-oxo-3H-isoindol-2-yl}piperidine-2,6-dione; trifluoro acetate]
Second: O=C1CCC(N2Cc3c(cccc3N(CCC3CC3)[C@H]3CC[C@@H](NCC4(C(F)(F)F)CCC4)CC3)C2=O)C(=O)N1 (stereo partly shown) [Compound 614A, 3-{4-[(2-cyclopropylethyl)[(1s,4s)-4-({[1-(trifluoromethyl)cyclobutyl]methyl}amino)cyclohexyl]amino]-1-oxo-3H-isoindol-2-yl}piperidine-2,6-dione; trifluoro acetate]
The IC50 of the first is lower: 100 to 1000 nM for the first, > 1000 nM for the second. The first is the more potent here.

Compared with `O=C1CCC(N2Cc3c(ccc(F)c3N(CCC3CC3)[C@H]3CC[C@H](NCC4(C(F)(F)F)CC4)CC3)C2=O)C(=O)N1` (stereo partly shown) [Compound 619, 3-(4-((2-cyclopropylethyl)(4-(((1-(trifluoromethyl)cyclopropyl)methyl)amino)cyclohexyl)amino)-5-fluoro-1-oxoisoindolin-2-yl)piperidine-2,6-dione], `O=C1CCC(N2Cc3c(N(CCC4CC4)[C@H]4CC[C@H](NCC5(C(F)(F)F)CC5)CC4)ccc(F)c3C2=O)C(=O)N1` (stereo partly shown) [Compound 627, 3-{4-[(2-cyclopropylethyl)[(1r,4r)-4-({[1-(trifluoromethyl)cyclopropyl]methyl}amino)cyclohexyl]amino]-7-fluoro-1-oxo-3H-isoindol-2-yl}piperidine-2,6-dione] is higher in IC50: 100 to 1000 nM for the first, > 1000 nM for the second. The first is the more potent here.

Compared with `O=C1CCC(N2Cc3c(N(CCC4CC4)[C@H]4CC[C@@H](NCC5(C(F)(F)F)CC5)CC4)ccc(F)c3C2=O)C(=O)N1` (stereo partly shown) [Compound 627A, 3-{4-[(2-cyclopropylethyl)[(1s,4s)-4-({[1-(trifluoromethyl)cyclopropyl]methyl}amino)cyclohexyl]amino]-7-fluoro-1-oxo-3H-isoindol-2-yl}piperidine-2,6-dione], `O=C1CCC(N2Cc3c(cccc3N(CCCCC(F)(F)F)[C@H]3CC[C@H](NCC4(C(F)(F)F)CC4)CC3)C2=O)C(=O)N1` (stereo partly shown) [Compound 628, 3-(1-oxo-4-{[(1r,4r)-4-({[1-(trifluoromethyl)cyclopropyl]methyl}amino)cyclohexyl](5,5,5-trifluoropentyl)amino}-3H-isoindol-2-yl)piperidine-2,6-dione; trifluoroacetate] is lower in IC50: > 1000 nM for the first, 100 to 1000 nM for the second.

`O=C1CCC(N2Cc3c(cccc3N(CCCCC(F)(F)F)[C@H]3CC[C@@H](NCC4(C(F)(F)F)CC4)CC3)C2=O)C(=O)N1` (stereo partly shown) [Compound 628A, 3-(1-oxo-4-{[(1s,4s)-4-({[1-(trifluoromethyl)cyclopropyl]methyl}amino)cyclohexyl](5,5,5-trifluoropentyl)amino}-3H-isoindol-2-yl)piperidine-2,6-dione; trifluoroacetate] and `O=C1CCC(N2Cc3c(cccc3N(CCCCC(F)(F)F)[C@H]3CC[C@@H](NCCC(F)(F)F)CC3)C2=O)C(=O)N1` (stereo partly shown) [Compound 636A, 3-(1-oxo-4-{[(1s,4s)-4-[(3,3,3-trifluoropropyl)amino]cyclohexyl](5,5,5-trifluoropentyl)amino}-3H-isoindol-2-yl)piperidine-2,6-dione; trifluoroacetate] cannot be ordered by IC50: > 1000 nM for the first, > 1000 nM for the second.
